18 compounds from ChEMBL document CHEMBL5149966, “Bisphosphonates, Old Friends of Bones and New Trends in Clinics” (J Med Chem, 2021) can be followed below.

For one series, the system named is Leishmania donovani. In words: Antiparasitic activity against amastigote stage Leishmania donovani MHOM/ET/67/L82 infected in CD-1 mouse peritoneal macrophage assessed as reduction in parasite burden incubated for 5 days by Giemsa staining based microscopy. Format: functional, organism-based. As to conditions: MHOM/ET/67/L82, Peritoneal macrophage, 120 h.
For another series, the system named is Toxoplasma gondii. In words: Antiparasitic activity against Toxoplasma gondii tachyzoites infected in human foreskin fibroblast incubated for 48 hrs followed by [5,6-3H]uracil addition and measured after 4 hrs by scintillation counter analysis. Format: functional, organism-based. The following applies: type III.
The test system of a further series is Plasmodium falciparum. In words: Antiparasitic activity against Plasmodium falciparum 3D7 infected in human erythrocyte assessed as intraerythrocytic growth inhibition incubated for 24 hrs followed by [3H]hypoxanthine addition by microbeta scintillation counter analysis. Format: functional, organism-based. As to conditions: 3D7, Erythrocyte.
Series [1] relates to Entamoeba histolytica. In words: Antiparasitic activity against Entamoeba histolytica trophozoites infected in hamster liver to induce hepatic abscess assessed as reduction in liver abscess formation at 10 mg/kg, ip for 5 days. Format: functional. As to conditions: time 5 day. More on the design: scale not given: the % may be the effect or the level left.
For series [2], the system named is Trypanosoma brucei rhodesiense. In words: Antiparasitic activity against Trypanosoma brucei rhodesiense STIB900 bloodstream trypomastigotes assessed as parasite growth inhibition incubated for 3 days by Alamar Blue fluorometric assay. The following applies: STIB900, 72 h. It is filed as functional, organism-based. In general terms: Alamar Blue is a resazurin reagent that responds to reducing activity.

The test system of series [3] is Entamoeba histolytica. In words: Antiparasitic activity against Entamoeba histolytica trophozoites assessed as parasite growth inhibition incubated for 90 hrs followed by [3H]hypoxanthine addition and measured after 6 hrs by scintillation counter analysis. It is filed as functional, organism-based.
Series [4] concerns the target T1, Ditrans,polycis-undecaprenyl-diphosphate synthase ((2E,6E)-farnesyl-diphosphate specific) (Escherichia coli (strain K12), UniProt P60472).
T1 sequence (P60472 whole entry): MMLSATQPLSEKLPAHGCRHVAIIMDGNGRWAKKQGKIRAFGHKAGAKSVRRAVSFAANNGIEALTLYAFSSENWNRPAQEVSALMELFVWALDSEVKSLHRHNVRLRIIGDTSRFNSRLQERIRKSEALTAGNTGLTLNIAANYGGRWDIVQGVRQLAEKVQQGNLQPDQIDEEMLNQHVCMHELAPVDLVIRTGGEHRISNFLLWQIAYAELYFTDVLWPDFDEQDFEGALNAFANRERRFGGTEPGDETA
In words: Inhibition of Escherichia coli UPPS.

Another series has as its system Plasmodium berghei. In words: Antiparasitic activity against Plasmodium berghei ANKA infected in BALB/c mouse assessed as reduction in parasitemia at 25 mg/kg, ip for 4 days. Format: functional. The arrangement: scale not given: the % may be the effect or the level left. As to conditions: time 4 day.
Another series is filed under the species Rattus norvegicus. In words: Anti-osteoclast activity rat assessed as inhibition of bone resorption relative to control. It is filed as functional.
Series [5] can be described thus: Drug distribution in NMRI mouse liver at 4.2 mg/kg administered as C14-lableled compound and assessed as radioactivity and measured upto 2 hrs. Format: ADME, organism-based. As to conditions: in vivo.
A short description of series [6]: Drug distribution in NMRI mouse spleen at 4.2 mg/kg administered as C14-lableled compound and assessed as radioactivity and measured upto 2 hrs. Format: ADME, organism-based. As to conditions: in vivo.
A short description of series [7]: Drug uptake in Beagle dog thyroid gland at 0.15 mg/kg, iv administered as C14-lableled compound and assessed as radioactivity after 96 hrs by autoradiography. Format: ADME, organism-based, Canis lupus familiaris. As to conditions: in vivo.
A short description of series [8]: Drug uptake in Beagle dog knee cartilage at 0.15 mg/kg, iv administered as C14-lableled compound and assessed as radioactivity after 96 hrs by autoradiography. As to conditions: in vivo. Format: ADME, organism-based, Canis lupus familiaris, Cartilage tissue.
Series [9] is described as follows: Drug uptake in Beagle dog aorta at 0.15 mg/kg, iv administered as C14-lableled compound and assessed as radioactivity after 96 hrs by autoradiography. It is filed as ADME, organism-based, Canis lupus familiaris. As to conditions: in vivo.
A short description of series [10]: Drug uptake in Beagle dog heart at 0.15 mg/kg, iv administered as C14-lableled compound and assessed as radioactivity after 96 hrs by autoradiography. Format: ADME, organism-based, Canis lupus familiaris. As to conditions: in vivo.
Series [11] in a line: Drug uptake in Beagle dog lung at 0.15 mg/kg, iv administered as C14-lableled compound and assessed as radioactivity after 96 hrs by autoradiography. Format: ADME, organism-based, Canis lupus familiaris. As to conditions: in vivo.
The nature of series [12]: Drug uptake in Beagle dog spleen at 0.15 mg/kg, iv administered as C14-lableled compound and assessed as radioactivity after 96 hrs by autoradiography. Format: ADME, organism-based, Canis lupus familiaris. As to conditions: in vivo.
A short description of series [13]: Drug uptake in Beagle dog sciatic nerve at 0.15 mg/kg, iv administered as C14-lableled compound and assessed as radioactivity after 96 hrs by autoradiography. It is filed as ADME, organism-based, Canis lupus familiaris. The following applies: in vivo.
Series [14] can be described thus: Drug uptake in Beagle dog pancreas at 0.15 mg/kg, iv administered as C14-lableled compound and assessed as radioactivity after 96 hrs by autoradiography. Format: ADME, organism-based, Canis lupus familiaris. As to conditions: in vivo.
A short description of series [15]: Drug uptake in Beagle dog adrenal tissue at 0.15 mg/kg, iv administered as C14-lableled compound and assessed as radioactivity after 96 hrs by autoradiography. As to conditions: in vivo. Format: ADME, organism-based, Canis lupus familiaris.
A short description of series [16]: Drug uptake in Beagle dog liver at 0.15 mg/kg, iv administered as C14-lableled compound and assessed as radioactivity after 96 hrs by autoradiography. It is filed as ADME, organism-based, Canis lupus familiaris. The following applies: in vivo.
The nature of series [17]: Drug uptake in Beagle dog small intestine at 0.15 mg/kg, iv administered as C14-lableled compound and assessed as radioactivity after 96 hrs by autoradiography. The following applies: in vivo. It is filed as ADME, organism-based, Canis lupus familiaris.
The nature of series [18]: Drug uptake in Beagle dog skin at 0.15 mg/kg, iv administered as C14-lableled compound and assessed as radioactivity after 96 hrs by autoradiography. It is filed as ADME, organism-based, Canis lupus familiaris, Skin of body. The following applies: in vivo.
The test system of another series is Trypanosoma cruzi. In words: Antiparasitic activity against Trypanosoma cruzi amastigotes infected in vero cells assessed as parasite growth inhibition incubated for 48 hrs by light microscopy. Format: functional, organism-based.

The term IC50 denotes the concentration at which inhibition is half-maximal.

For `O=P(O)(O)C(O)(CCc1cccnc1)P(=O)(O)O`, the IC50 with Leishmania donovani, in the series on Toxoplasma gondii and with Plasmodium falciparum was more than 200 µM throughout.
Regarding `CCCCCCCCCCC(O)(P(=O)(O)O)P(=O)(O)O`, the half-maximal inhibitory concentration (IC50) with Toxoplasma gondii was determined as 0.28 µM. Further, in the series on Entamoeba histolytica [1], the Activity is 68%.
On to `CCCCCC(O)(P(=O)(O)O)P(=O)(O)O`, for which the IC50 in [2] was 92 µM; with Leishmania donovani it was more than 200 µM; in the series with Toxoplasma gondii, 9.1 µM; in the series on Plasmodium falciparum, 130 µM.
As for `O=P(O)(O)C(O)(Nc1cccc(-c2ccccc2)c1)P(=O)(O)O`, the IC50 in the series with Plasmodium falciparum is more than 200 µM; with Entamoeba histolytica [3], 6.6 µM.
On the same counts, the results for `O=P(O)(O)C(O)(Nc1ccc(-c2ccccc2)cc1)P(=O)(O)O` are 76.6 µM and 8.76 µM.
On to `O=P(O)(O)C(O)(Cc1cccc(-c2cccc3oc4ccccc4c23)c1)P(=O)(O)O`, for which the IC50 in series [4] turned out to be 0.59 µM.
On to `CCCCCCCCNC(O)(P(=O)(O)O)P(=O)(O)O`, for which the IC50 in series [2] stood at 1.7 µM.
On to `CCCC(O)(P(=O)(O)O)P(=O)(O)O`, for which the IC50 worked out at 5.53 µM in the series with Plasmodium falciparum and 157 µM in the series with Entamoeba histolytica [3]. Further, the Activity in the series with Plasmodium berghei came out at 80%.
Consider `CCCCCCCCCC(O)(P(=O)(O)O)P(=O)(O)O`, for which the IC50 was 0.55 µM in the series on Toxoplasma gondii and 0.83 µM with Plasmodium falciparum.
For the compound `Cc1cccnc1NC(P(=O)(O)O)P(=O)(O)O`, the IC50 in the series on Plasmodium falciparum was more than 200 µM.
As to `CC(N)CC(O)(P(=O)(O)O)P(=O)(O)O` (stereo not drawn), the IC50 with Leishmania donovani and in the series on Plasmodium falciparum was more than 200 µM throughout.
As to `NCCCC(O)(P(=O)(O)O)P(=O)(O)O` [ALENDRONIC ACID], the “fold change (FC)” value in the series filed under Rattus norvegicus is 400.
As to `O=P(O)(O)C(Cl)(Cl)P(=O)(O)O` [CLODRONIC ACID], the “fold change (FC)” value in the series listed under Rattus norvegicus is given as 10.
Turning to `CC(O)(P(=O)(O)O)P(=O)(O)O` [ETIDRONIC ACID], in the series listed under Rattus norvegicus, the “fold change (FC)” value stood at 1.
On the same count and under the same terms, under `CCCCCN(C)CCC(O)(P(=O)(O)O)P(=O)(O)O` [IBANDRONIC ACID] stands 1000.
As to `NCCC(O)(P(=O)(O)O)P(=O)(O)O` [PAMIDRONIC ACID], the “fold change (FC)” value in the series listed under Rattus norvegicus came to 100. Besides, the Drug uptake in series [5] and in series [6] was 20% throughout.
In the case of `O=P(O)(O)C(O)(Cc1cccnc1)P(=O)(O)O` [RISEDRONIC ACID], the “fold change (FC)” value in the series listed under Rattus norvegicus is 2000.
For the compound `O.O=P(O)(O)C(O)(Cn1ccnc1)P(=O)(O)O` [ZOLEDRONIC ACID], the “fold change (FC)” value in the series listed under Rattus norvegicus is listed as 6700. Moreover, the Drug uptake in series [7] was 0.3 nmol/g; in series [8] it was 0.15 nmol/g; in series [9] it was more than 0.1 nmol/g; in series [10], more than 0.1 nmol/g; in series [11], more than 0.1 nmol/g; in series [12] it was more than 0.1 nmol/g. The Drug uptake in series [13], in series [14], in [15], in [16], in series [17] and in series [18] was more than 0.1 nmol/g each time. Further, the IC50 in [2] is 8.6 µM; in the series on Trypanosoma cruzi, 35 µM; in the series with Toxoplasma gondii, 6.7 µM; with Plasmodium falciparum it was more than 200 µM.
